{"source": "the supplement of paper PMC11061612", "assay_in_all_cases": "combination Emax (second highest fraction inhibited in the dose matrix, 72 h); higher = more inhibition; extreme values may be limits of the assay", "key": {"[1]": {"test_system": "Ca9-22 (Head and Neck Carcinoma)", "how_it_was_run": "(§1)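 Cell lines grown in DMEM/F12 or RPMI with 10% FBS were plated in 1536-well plates and held 24 hours at 37°C, 5% CO2 before 72 hours of exposure to two-drug dose matrices, with DMSO typically at 0.2%. CellTiter-Glo 2.0 luminescence gave viability, which was converted to inhibition. Vehicle wells were set to 0 and blank wells to 1. Combination Emax is the second-highest inhibition in the matrix, and Bliss excess is the observed combination effect minus the expected EA + EB − EA·EB, where EA and EB are the single-agent effects.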"}, "D-263MG (Glioblastoma)": {"test_system": "D-263MG (Glioblastoma)", "how_it_was_run": "as §1"}, "[2]": {"test_system": "EFM-19 (Breast Carcinoma)", "how_it_was_run": "as §1"}, "EW-24 (Ewing's Sarcoma)": {"test_system": "EW-24 (Ewing's Sarcoma)", "how_it_was_run": "as §1"}, "[3]": {"test_system": "EoL-1-cell (Acute Myeloid Leukemia)", "how_it_was_run": "as §1"}, "[4]": {"test_system": "HOP-62 (Lung Adenocarcinoma)", "how_it_was_run": "as §1"}, "[5]": {"test_system": "HSC-4 (Oral Cavity Carcinoma)", "how_it_was_run": "as §1"}, "[6]": {"test_system": "Hs-766T (Pancreatic Carcinoma)", "how_it_was_run": "as §1"}, "[7]": {"test_system": "KARPAS-299 (T-Cell Non-Hodgkin's Lymphoma)", "how_it_was_run": "as §1"}, "[8]": {"test_system": "NCI-H358 (Lung Adenocarcinoma)", "how_it_was_run": "as §1"}, "[9]": {"test_system": "NUGC-3 (Gastric Carcinoma)", "how_it_was_run": "as §1"}, "[10]": {"test_system": "OVCAR-4 (Ovarian Carcinoma)", "how_it_was_run": "as §1"}, "[11]": {"test_system": "PANC-04-03 (Pancreatic Carcinoma)", "how_it_was_run": "as §1"}, "PWR-1E (Non-Cancerous)": {"test_system": "PWR-1E (Non-Cancerous)", "how_it_was_run": "as §1"}, "[12]": {"test_system": "SCC-15 (Oral Cavity Carcinoma)", "how_it_was_run": "as §1"}, "[13]": {"test_system": "SU8686 (Pancreatic Carcinoma)", "how_it_was_run": "as §1"}, "TGW (Neuroblastoma)": {"test_system": "TGW (Neuroblastoma)", "how_it_was_run": "as §1"}, "TK10 (Kidney Carcinoma)": {"test_system": "TK10 (Kidney Carcinoma)", "how_it_was_run": "as §1"}, "UACC-62 (Melanoma)": {"test_system": "UACC-62 (Melanoma)", "how_it_was_run": "as §1"}, "YH-13 (Glioblastoma)": {"test_system": "YH-13 (Glioblastoma)", "how_it_was_run": "as §1"}}, "data": [{"smiles": "CN(C)CCCOc1ccc(-c2ccc3ncc4c(c3c2)n(C2CCOCC2)c(=O)n4C)cn1", "note": "[AZD0156] + CCN(CCO)CCCOc1ccc2c(Nc3cc(CC(=O)Nc4cccc(F)c4)[nH]n3)ncnc2c1 [AZD2811] (first compound max 1 µM, 7x7, partner max 1 µM)", "values": [{"measurement": "combination Emax", "setting": "[1]", "value": 0.127}, {"measurement": "combination Emax", "setting": "D-263MG (Glioblastoma)", "value": 0.329}, {"measurement": "combination Emax", "setting": "[2]", "value": 0.383}, {"measurement": "combination Emax", "setting": "EW-24 (Ewing's Sarcoma)", "value": 0.302}, {"measurement": "combination Emax", "setting": "[3]", "value": 0.999}, {"measurement": "combination Emax", "setting": "[4]", "value": 0.0853}, {"measurement": "combination Emax", "setting": "[5]", "value": 0.0498}, {"measurement": "combination Emax", "setting": "[6]", "value": 0.0844}, {"measurement": "combination Emax", "setting": "[7]", "value": 0.243}, {"measurement": "combination Emax", "setting": "[8]", "value": 0.157}, {"measurement": "combination Emax", "setting": "[9]", "value": 0.322}, {"measurement": "combination Emax", "setting": "[10]", "value": 0.148}, {"measurement": "combination Emax", "setting": "[11]", "value": 0.0564}, {"measurement": "combination Emax", "setting": "PWR-1E (Non-Cancerous)", "value": 0.626}, {"measurement": "combination Emax", "setting": "[12]", "value": 0.201}, {"measurement": "combination Emax", "setting": "[13]", "value": 0.0439}, {"measurement": "combination Emax", "setting": "TGW (Neuroblastoma)", "value": 0.356}, {"measurement": "combination Emax", "setting": "TK10 (Kidney Carcinoma)", "value": 0.166}, {"measurement": "combination Emax", "setting": "UACC-62 (Melanoma)", "value": 0.188}, {"measurement": "combination Emax", "setting": "YH-13 (Glioblastoma)", "value": 0.348}]}, {"smiles": "CC(=O)c1c(C)c2cnc(Nc3ccc(N4CCNCC4)cn3)nc2n(C2CCCC2)c1=O", "note": "[Palbociclib] + Cc1c2c(nn1C)CSCc1cc(n(C)n1)CSc1cc(c3ccccc3c1)OCCCc1c(C(=O)O)n(C)c3c-2c(Cl)ccc13 [AZD5991] (first compound max 10 µM, 7x7, partner max 1 µM)", "values": [{"measurement": "combination Emax", "setting": "[1]", "value": 0.267}, {"measurement": "combination Emax", "setting": "D-263MG (Glioblastoma)", "value": 0.612}, {"measurement": "combination Emax", "setting": "[2]", "value": 0.255}, {"measurement": "combination Emax", "setting": "EW-24 (Ewing's Sarcoma)", "value": 0.577}, {"measurement": "combination Emax", "setting": "[3]", "value": 1}, {"measurement": "combination Emax", "setting": "[4]", "value": 0.424}, {"measurement": "combination Emax", "setting": "[5]", "value": 0.106}, {"measurement": "combination Emax", "setting": "[6]", "value": 0.404}, {"measurement": "combination Emax", "setting": "[7]", "value": 0.968}, {"measurement": "combination Emax", "setting": "[8]", "value": 0.363}, {"measurement": "combination Emax", "setting": "[9]", "value": 0.572}, {"measurement": "combination Emax", "setting": "[10]", "value": 0.191}, {"measurement": "combination Emax", "setting": "[11]", "value": 0.196}, {"measurement": "combination Emax", "setting": "PWR-1E (Non-Cancerous)", "value": 0.271}, {"measurement": "combination Emax", "setting": "[12]", "value": 0.191}, {"measurement": "combination Emax", "setting": "[13]", "value": 0.0791}, {"measurement": "combination Emax", "setting": "TGW (Neuroblastoma)", "value": 0.24}, {"measurement": "combination Emax", "setting": "TK10 (Kidney Carcinoma)", "value": 0.353}, {"measurement": "combination Emax", "setting": "UACC-62 (Melanoma)", "value": 0.588}, {"measurement": "combination Emax", "setting": "YH-13 (Glioblastoma)", "value": 0.38}]}, {"smiles": "CN(C)CCCOc1ccc(-c2ccc3ncc4c(c3c2)n(C2CCOCC2)c(=O)n4C)cn1", "note": "[AZD0156] + O=C(c1cc(Cc2n[nH]c(=O)c3ccccc23)ccc1F)N1CCN(C(=O)C2CC2)CC1 [Olaparib] (first compound max 3 µM, partner max 3 µM)", "values": [{"measurement": "combination Emax", "setting": "[1]", "value": 0.465}, {"measurement": "combination Emax", "setting": "D-263MG (Glioblastoma)", "value": 0.196}, {"measurement": "combination Emax", "setting": "[2]", "value": 0.533}, {"measurement": "combination Emax", "setting": "EW-24 (Ewing's Sarcoma)", "value": 0.473}, {"measurement": "combination Emax", "setting": "[3]", "value": 0.732}, {"measurement": "combination Emax", "setting": "[4]", "value": 0.122}, {"measurement": "combination Emax", "setting": "[5]", "value": 0.234}, {"measurement": "combination Emax", "setting": "[6]", "value": 0.207}, {"measurement": "combination Emax", "setting": "[7]", "value": 0.467}, {"measurement": "combination Emax", "setting": "[8]", "value": 0.247}, {"measurement": "combination Emax", "setting": "[9]", "value": 0.346}, {"measurement": "combination Emax", "setting": "[10]", "value": 0.149}, {"measurement": "combination Emax", "setting": "[11]", "value": 0.32}, {"measurement": "combination Emax", "setting": "PWR-1E (Non-Cancerous)", "value": 0.684}, {"measurement": "combination Emax", "setting": "[12]", "value": 0.277}, {"measurement": "combination Emax", "setting": "[13]", "value": 0.146}, {"measurement": "combination Emax", "setting": "TGW (Neuroblastoma)", "value": 0.413}, {"measurement": "combination Emax", "setting": "TK10 (Kidney Carcinoma)", "value": 0.197}, {"measurement": "combination Emax", "setting": "UACC-62 (Melanoma)", "value": 0.183}, {"measurement": "combination Emax", "setting": "YH-13 (Glioblastoma)", "value": 0.453}]}]}
